# In ChEMBL document CHEMBL6103564, “Selective Degradation of TEADs by a PROTAC Molecule Exhibited Robust Anticancer Efficacy In Vitro and In Vivo” (J Med Chem, 2025):
# Legend:
# in vivo [1] = details: ICR, mouse, iv, 5 mg/kg
# in vivo [2] = details: ICR, mouse, ip, 10 mg/kg
# in vivo [3] = details: ICR, mouse, ip, 10 mg/kg; remark: listed apart in the source
# in vivo [4] = details: ICR, mouse, iv, 5 mg/kg; remark: listed apart in the source
# in vivo [5] = details: ICR, mouse, po, 5 mg/kg
# in vivo [6] = details: ICR, mouse, po, 5 mg/kg; remark: listed apart in the source
# in vivo [7] = details: ICR, mouse, po, 10 mg/kg
# in vivo [8] = details: ICR, mouse, iv, 5 mg/kg; remark: listed apart in the source
# in vivo [9] = details: ICR, mouse, iv, 5 mg/kg; remark: listed apart in the source
# in vivo [10] = details: ICR, mouse, ip, 10 mg/kg; remark: listed apart in the source
# in vivo [11] = details: ICR, mouse, po, 5 mg/kg; remark: listed apart in the source
# in vivo [12] = details: ICR, mouse, iv, 5 mg/kg; remark: listed apart in the source
# in vivo [13] = details: ICR, mouse, po, 5 mg/kg; remark: listed apart in the source
# in vivo [14] = details: ICR, mouse, ip, 10 mg/kg; remark: listed apart in the source
# in vivo [15] = details: ICR, mouse, iv, 5 mg/kg; remark: listed apart in the source
# in vivo [16] = details: ICR, mouse, iv, 5 mg/kg; remark: listed apart in the source
# in vivo [17] = details: ICR, mouse, ip, 10 mg/kg; remark: listed apart in the source
compound,measurement,setting,value
COCCOc1ccc(C(N)=O)c(-c2c(Cl)ccc3c2C[C@@](CNCCC2CCN(c4ccc5c(c4)C(=O)N(C4CCC(=O)NC4=O)C5=O)CC2)(c2ccccc2)O3)c1F (some centres not stated),AUC(0-inf),in vivo [1],1240 ng·h/mL
same,AUC(0-inf),in vivo [2],3000 ng·h/mL
same,half-life,in vivo [3],2.68 h
same,half-life,in vivo [4],1.94 h
same,Cmax,in vivo [5],7.86 ng/mL
same,MRT,in vivo [6],0.51 h
same,bioavailability,in vivo [7],121%
same,Vd,in vivo [8],11.5 L/kg
same,AUC(0-t),in vivo [9],1220 ng·h/mL
same,MRT,in vivo [10],2.76 h
same,AUC(0-t),in vivo [11],5.39 ng·h/mL
same,Vd,in vivo [12],3.79 L/kg
same,bioavailability,in vivo [13],0.44%
same,AUC(0-t),in vivo [14],2960 ng·h/mL
same,clearance,in vivo [15],70.6 mL/min/kg
same,MRT,in vivo [16],0.69 h
same,Cmax,in vivo [17],1160 ng/mL
